We go through eleven compounds from ChEMBL document CHEMBL1201862, “PubChem BioAssay data set” (2004).

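Cells were grown in 96-well plates and exposed to each compound for 48 hours at five concentrations; endpoints were interpolated linearly between bracketing concentrations, or set to the highest concentration if not reached. GI50 is the concentration that inhibits growth by half.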 Calls of active or inactive are those of the source. Rule as the data show it: active = GI50 up to about 1.1 µM and inactive = higher. A value given as a limit tells only on which side of the number the result lay.

What all share (experiment): NCI anticancer screen, dose series, 48 h
For test [1], the system named is Hs-578T.
In test [2] the test system is COLO 205.
Test [3] relates to SK-MEL-5.
Test [4] deals with MOLT-4.
The subject of test [5] is ACHN.
For test [6], the system named is MDA-MB-435.
The subject of test [7] is SF-539.
In test [8] the test system is NCI/ADR-RES.
Test [9] has as its system DU-145.
For test [10], the system named is 786-0.
For test [11], the system named is MDA-MB-231.
Test [12] deals with HT-29.
In test [13] the test system is SK-MEL-28.
Test [14] concerns SR.
The test system of test [15] is BT-549.
Test [16] deals with SW-620.
The subject of test [17] is A498.
The test system of test [18] is OVCAR-4.
The test system of test [19] is PC-3.
The subject of test [20] is SK-MEL-2.

Turning to `O=c1c2cccnc2[s+]([O-])n1Cc1ccccc1` (centres undefined), the GI50 in test [1], in test [2], in [3], in test [4], in test [5] and in test [6] was > 100 µM (inactive) in each case. The GI50 in test [7], in test [8], in test [9], in [10], in test [11] and in test [12] was > 100 µM (inactive) throughout. The GI50 in [13], in test [14], in test [15], in test [16], in test [17] and in test [18] was > 100 µM (inactive) in each case.
As to `N/N=C(\C(=O)Nc1ccc([N+](=O)[O-])cc1)C(C1=Nc2cc([N+](=O)[O-])ccc2NC1)[N+](=O)[O-]` (centres undefined), the GI50 was > 100 µM (inactive) in test [1]; > 100 µM (inactive) in test [19]; 74.1 µM (inactive) in [3]; > 100 µM (inactive) in [4]; > 100 µM (inactive) in test [20]; 43.1 µM (inactive) in test [5]. For the same compound, the GI50 in [6] is 88.3 µM (inactive); in test [7], > 100 µM (inactive); in test [8], > 100 µM (inactive); in [10] it was > 100 µM (inactive); in test [11], > 100 µM (inactive); in test [12] it was 72.4 µM (inactive). For the same compound, the GI50 is > 100 µM (inactive) in test [13]; > 100 µM (inactive) in test [14]; > 100 µM (inactive) in [15]; 91.4 µM (inactive) in test [16]; > 100 µM (inactive) in [17]; > 100 µM (inactive) in [18].
Regarding `CCOC(=O)c1c(NCc2ccccc2)n(-c2ccccc2)c(=S)n(-c2ccccc2)c1=O`, the GI50 in [1] is 19.5 µM (inactive); in test [2], 76.2 µM (inactive); in test [3], 94.6 µM (inactive); in test [4] it was 34.5 µM (inactive); in test [20], > 100 µM (inactive); in test [5], > 100 µM (inactive). The GI50 in test [6] was > 100 µM (inactive); in test [9], > 100 µM (inactive); in [10] it was > 100 µM (inactive); in test [11], > 100 µM (inactive); in [12], 40.4 µM (inactive); in [13], > 100 µM (inactive). Moreover, the GI50 in test [14] is 33.7 µM (inactive); in test [15], 36.9 µM (inactive); in test [16] it was > 100 µM (inactive); in [18], 98.6 µM (inactive).
Take `CCn1c(O)c(C(=O)NC(C)c2ccc([N+](=O)[O-])cc2)c(=O)n(CC)c1=S` (centres undefined): the GI50 in test [1] was 2.52 µM (inactive); in test [2], 1.81 µM (inactive); in test [19], 0.773 µM (active); in [3], 3.13 µM (inactive); in test [4], 2.05 µM (inactive); in [20] it was 1.02 µM (active). Besides, the GI50 was 3.1 µM (inactive) in [5]; 3.62 µM (inactive) in test [6]; 3.93 µM (inactive) in test [7]; 2.54 µM (inactive) in test [9]; 3.27 µM (inactive) in [10]; 2.91 µM (inactive) in test [11]. In addition, the GI50 was 2.34 µM (inactive) in [12]; 4.27 µM (inactive) in test [13]; 2.21 µM (inactive) in [15]; 2.43 µM (inactive) in test [16]; 1.48 µM (inactive) in test [18].
Consider `COc1cc([C@@H]2c3cc4c(cc3[C@@H](c3c(O)cc(O)c5c3O[C@H](c3ccc(O)c(O)c3)[C@@H](O)C5)[C@H]3COC(=O)[C@H]23)OCO4)cc(OC)c1OC`, for which the GI50 is 34 µM (inactive) in test [1]; 22.7 µM (inactive) in test [2]; 1.75 µM (inactive) in [19]; 17 µM (inactive) in [3]; 30.5 µM (inactive) in test [4]; 1.88 µM (inactive) in [20]. Moreover, the GI50 was 1.78 µM (inactive) in test [5]; 1.75 µM (inactive) in test [6]; 17.6 µM (inactive) in test [7]; 46 µM (inactive) in [8]; 1.73 µM (inactive) in test [9]; 24 µM (inactive) in test [10]. The GI50 is 1.67 µM (inactive) in [11]; 25.5 µM (inactive) in test [12]; 48.4 µM (inactive) in [13]; > 100 µM (inactive) in test [15]; 32 µM (inactive) in [16]; 1.6 µM (inactive) in test [17]. For the same compound, the GI50 in [18] is 1.8 µM (inactive).
Turning to `COc1ccccc1N1CCN(S(=O)(=O)c2ccc(Cl)cc2)C1=N`, the GI50 is 78 µM (inactive) in test [1]; 73.6 µM (inactive) in test [2]; 56.8 µM (inactive) in [19]; 56.2 µM (inactive) in [3]; 43 µM (inactive) in test [4]; 57.4 µM (inactive) in test [20]. Further, the GI50 in test [5] is 48.9 µM (inactive); in test [6], 45.9 µM (inactive); in test [7] it was 81.3 µM (inactive); in test [8] it was 61.2 µM (inactive); in test [9], 47.5 µM (inactive); in test [10], 99.5 µM (inactive). Further, the GI50 in test [11] was 37.1 µM (inactive); in test [13], 75 µM (inactive); in [15], > 100 µM (inactive); in [16] it was 64.6 µM (inactive); in [17] it was > 100 µM (inactive); in [18] it was 87.9 µM (inactive).
For `O=S(=O)(N1CCCCN(S(=O)(=O)C(F)(F)F)CCCN(S(=O)(=O)C(F)(F)F)CCCCN(S(=O)(=O)C(F)(F)F)CCCN(S(=O)(=O)C(F)(F)F)CCCCN(S(=O)(=O)C(F)(F)F)CCCN(S(=O)(=O)C(F)(F)F)CCCCN(S(=O)(=O)C(F)(F)F)CCC1)C(F)(F)F`, the GI50 in [1] was > 31.6 µM (inactive); in test [2], > 100 µM (inactive); in [19], > 31.6 µM (inactive); in [3] it was > 31.6 µM (inactive); in [4] it was > 31.6 µM (inactive); in [20], > 100 µM (inactive). Also, the GI50 in [5] was > 31.6 µM (inactive); in test [6], > 31.6 µM (inactive); in [7], > 31.6 µM (inactive); in [8], > 31.6 µM (inactive); in test [9] it was > 31.6 µM (inactive); in test [10], > 100 µM (inactive). The GI50 in test [11], in test [12], in test [13], in test [15], in [16] and in [17] was > 31.6 µM (inactive) in each case. The GI50 in test [18] was > 100 µM (inactive).
In the case of `CC(NC(=O)C(N)CC(=O)O)NC(=O)N1CCCC1` (centres undefined), the GI50 in [1], in test [2], in test [19], in [3], in test [4] and in test [20] was > 100 µM (inactive) throughout. Besides, the GI50 in [5], in test [6], in [7], in test [8], in test [9] and in test [10] was > 100 µM (inactive) throughout. Moreover, the GI50 in [11], in test [12], in test [13], in test [15], in test [16] and in test [17] was > 100 µM (inactive) throughout. Moreover, the GI50 in test [18] is > 100 µM (inactive).
As for `CCOC(=O)C1=NOC2(C=C(Br)C(=O)C(Br)=C2)C1`, the GI50 in [1] is 22.1 µM (inactive); in test [2] it was 0.991 µM (active); in [19], 2.29 µM (inactive); in test [3], 7.67 µM (inactive); in test [4], < 0.0346 µM (active); in test [20], 6.84 µM (inactive). The GI50 was 0.923 µM (active) in test [5]; 1.76 µM (inactive) in test [6]; 4.43 µM (inactive) in test [7]; 2.97 µM (inactive) in test [8]; 6.7 µM (inactive) in test [9]; 0.659 µM (active) in [10]. Moreover, the GI50 is 6.78 µM (inactive) in test [11]; 1.97 µM (inactive) in test [12]; 6.75 µM (inactive) in test [13]; 5.21 µM (inactive) in test [15]; 0.37 µM (active) in test [16]; 20.1 µM (inactive) in [17]. For the same compound, the GI50 in test [18] was 1.8 µM (inactive).
With `Oc1ccccc1C1=NOC(c2ccc(C(F)(F)F)cc2)C1` (centres undefined), the GI50 was > 50 µM (inactive) in test [1]; > 50 µM (inactive) in test [2]; > 50 µM (inactive) in test [19]; > 50 µM (inactive) in [3]; > 50 µM (inactive) in test [4]; > 46.1 µM (inactive) in [20]. Moreover, the GI50 in [5], in [6], in test [7], in test [8], in [9] and in test [10] was > 50 µM (inactive) each time. In addition, the GI50 was > 41.6 µM (inactive) in [11]; > 50 µM (inactive) in test [12]; > 50 µM (inactive) in [13]; > 50 µM (inactive) in [15]; > 50 µM (inactive) in test [16]; > 50 µM (inactive) in test [17]. The GI50 in test [18] is > 50 µM (inactive).
Regarding `O=Cc1coc2ccccc2c1=O`, the GI50 in test [1] is 18.2 µM (inactive); in [2] it was 16.1 µM (inactive); in test [19], 18.8 µM (inactive); in test [3], 17.8 µM (inactive); in test [4], 24.9 µM (inactive); in [5] it was 19.5 µM (inactive). The GI50 in test [6] is 18.5 µM (inactive); in test [7], 16.1 µM (inactive); in test [8] it was 16 µM (inactive); in test [9], 40.6 µM (inactive); in test [10], 18.1 µM (inactive); in test [11], 18.5 µM (inactive). Also, the GI50 is 20.7 µM (inactive) in [12]; 15.6 µM (inactive) in [15]; 18.5 µM (inactive) in test [16]; 44.2 µM (inactive) in test [17]; 13.8 µM (inactive) in test [18].
